The supplement of paper PMC4862054

What was measured:
Settings in all cases: incubation time: 72 h
BT-474 [1] = test: normalised response (% of control), CellTiter-Glo; higher = more viable cells (100 = DMSO, 0 = benzethonium chloride kill control)
In short: (§1)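 Breast cancer cell lines, seeded at 20 µl suspension per well, were incubated for 72 h in 384-well plates containing compound at 5 concentrations. These concentrations rose in 10-fold steps over a 10,000-fold range set for each compound. CellTox Green fluorescence (485/520 nm) was read, then CellTiter-Glo luminescence after 10 min at room temperature, and each plate was normalised to 0.1 % DMSO (100) and a positive kill control (0). Values are normalised signals, each at one concentration.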

BT-549 [2] = test: as above
In short: as §1

CAL-120 [3] = test: as above
In short: as §1

CAL-148 [4] = test: as above
In short: as §1

CAL-51 [5] = test: as above
In short: as §1

CAL-85-1 [6] = test: as above
In short: as §1

DU-4475 [7] = test: as above
In short: as §1

HCC1143 [8] = test: as above
In short: as §1

HCC1599 [9] = test: as above
In short: as §1

HCC1937 [10] = test: as above
In short: as §1

HDQ-P1 [11] = test: as above
In short: as §1

Hs578T [12] = test: as above
In short: as §1

MCF-10A = test: as above
In short: as §1

MDA-MB-231 [13] = test: as above
In short: as §1

MDA-MB-436 [14] = test: as above
In short: as §1

MDA-MB-453 [15] = test: as above
In short: as §1

MDA-MB-468 [16] = test: as above
In short: as §1

MFM-223 [17] = test: as above
In short: as §1

SK-BR-3 [18] = test: as above
In short: as §1

BT-474 [19] = test: normalised viability (% of control), CellTiter-Blue; higher = more viable cells (100 = DMSO, 0 = benzethonium chloride kill control)
In short: (§2)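 Vehicle (100) and a positive kill control (0) anchored the normalisation of each plate, and Z'-factor was used for quality control. Breast cancer cell lines in 20 µl suspension were incubated 72 h over compound in 5 µl medium in 384-well plates, followed by CellTiter-Blue at 560/590 nm. The value is normalised viability at a single listed concentration of the series.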

BT-549 [20] = test: as above
In short: as §2

CAL-120 [21] = test: as above
In short: as §2

CAL-148 [22] = test: as above
In short: as §2

CAL-51 [23] = test: as above
In short: as §2

CAL-85-1 [24] = test: as above
In short: as §2

DU-4475 [25] = test: as above
In short: as §2

HCC1143 [26] = test: as above
In short: as §2

HCC1599 [27] = test: as above
In short: as §2

HCC1937 [28] = test: as above
In short: as §2

HDQ-P1 [29] = test: as above
In short: as §2

Hs578T [30] = test: as above
In short: as §2

MDA-MB-231 [31] = test: as above
In short: as §2

MDA-MB-436 [32] = test: as above
In short: as §2

MDA-MB-453 [33] = test: as above
In short: as §2

MDA-MB-468 [34] = test: as above
In short: as §2

MFM-223 [35] = test: as above
In short: as §2

SK-BR-3 [36] = test: as above
In short: as §2

Row | Compound | normalised response (BT-474 [1]) [%] | normalised response (BT-549 [2]) [%] | normalised response (CAL-120 [3]) [%] | normalised response (CAL-148 [4]) [%] | normalised response (CAL-51 [5]) [%] | normalised response (CAL-85-1 [6]) [%] | normalised response (DU-4475 [7]) [%] | normalised response (HCC1143 [8]) [%] | normalised response (HCC1599 [9]) [%] | normalised response (HCC1937 [10]) [%] | normalised response (HDQ-P1 [11]) [%] | normalised response (Hs578T [12]) [%] | normalised response (MCF-10A) [%] | normalised response (MDA-MB-231 [13]) [%] | normalised response (MDA-MB-436 [14]) [%] | normalised response (MDA-MB-453 [15]) [%] | normalised response (MDA-MB-468 [16]) [%] | normalised response (MFM-223 [17]) [%] | normalised response (SK-BR-3 [18]) [%] | normalised viability (BT-474 [19]) [%] | normalised viability (BT-549 [20]) [%] | normalised viability (CAL-120 [21]) [%] | normalised viability (CAL-148 [22]) [%] | normalised viability (CAL-51 [23]) [%] | normalised viability (CAL-85-1 [24]) [%] | normalised viability (DU-4475 [25]) [%] | normalised viability (HCC1143 [26]) [%] | normalised viability (HCC1599 [27]) [%] | normalised viability (HCC1937 [28]) [%] | normalised viability (HDQ-P1 [29]) [%] | normalised viability (Hs578T [30]) [%] | normalised viability (MDA-MB-231 [31]) [%] | normalised viability (MDA-MB-436 [32]) [%] | normalised viability (MDA-MB-453 [33]) [%] | normalised viability (MDA-MB-468 [34]) [%] | normalised viability (MFM-223 [35]) [%] | normalised viability (SK-BR-3 [36]) [%]
1 | COc1cc2/c(=N/c3ccc(Br)cc3F)nc[nH]c2cc1OCC1CCN(C)CC1 [Vandetanib] (1 nM) | 85.2 | 92.7 | 88.7 | 83.8 | 118 | 92.6 | 94.8 | 96.2 | 81.8 | 102 | 90.7 | 93.9 | 89.4 | 91.7 | 86.1 | 86 | 88.1 | 87 | 68.2 | 107 | 87.6 | 124 | 98.4 | 97 | 110 | 110 | 106 | 112 | 82.5 | 56.1 | 101 | 88.2 | 81.1 | 94.7 | 94.9 | 94.8 | 84
2 | O=C(Nc1ccncc1)C(=O)c1cn(Cc2ccc(Cl)cc2)c2ccccc12 [Indibulin] (1 nM) | 103 | 104 | 99.1 | 109 | 59.7 | 106 | 109 | 97.2 | 113 | 100 | 106 | 100 | 101 | 102 | 103 | 113 | 103 | 107 | 110 | 104 | 100 | 92.1 | 111 | 106 | 98.9 | 121 | 95.7 | 109 | 95.8 | 77.9 | 111 | 119 | 161 | 103 | 102 | 97 | 102
